In US9809557B2 (priority 2011, dated 2017):
≈ marks a conversion by molar mass, not a printed value.

Key:
[1] = Solubility at acidic pH, with and without DMA cosolvent; format: physicochemical
Protocol: A suspension of DPX-2-0007 (as hydrochloride salt) was formed by adding 30 mg to 4 mL demineralized water. After rotation of the suspension at 37° C. for 3 days, 1.0 mL sample was taken and after filtration (disposable syringe filters), the solution was diluted in methanol:water 1:1 and analyzed immediately by HPLC for prodrug. […] The pH in the solution was measured to 3.40. The following HPLC method was used: Merck Hitachi L 6200 pump connected to Merck Hitachi 4250 UV detector. Reversed phase chromatography was performed using a RP 18 Symmetry Shields® column (150×4.6 mm, 5 μm particles) equipped with a SecurityGuard precolumn (Phenomenex, Torrance, Calif., USA). […] The retention time of naproxen and DPX-2-0007 were 19 and 5.8 min, respectively.
A suspension of DPX-2-0006 was formed by adding 10 mg to 3 mL demineralized water, 0.05 mL 0.100 M HCl was added to obtain a pH of 3. After rotation of the suspension at 37° C. for 1 days, 0.5 mL sample was taken and after filtration (disposable syringe filters), the solution was diluted in methanol:water 1:1 and analyzed immediately by HPLC for prodrug. […] The HPLC method described in Example 29 was applied and the retention time of DPX-2-0006 was 14 min, respectively. N,N-dimethylacetamide (DMA) was added stepwise to the acidic suspension of DPX-2-0006 and the amount of DPX-2-000 dissolved in the presence of various volumes of DMA was determined after 1-3 days rotation at 37° C. as described above.

[2] = Stability of a suspension of prodrug in 80% human synovial fluid pH 7.4, formation of ketorolac; format: in vitro ADME; settings: after 21 hours
Protocol: (§1) The stability of a suspension of DPX-4-0001 in 80% human synovial fluid pH 7.4 (SF) from arthritis patients was investigated at 37° C. The reaction was initiated by adding 5 ml preheated SF to 2 mg DPX-4-0001. At appropriate time intervals, 400 μl samples were taken and centrifuged for 5 min at 13.000 rpm and 200 μl of the supernatant was deproteinised with 400 μl acetonitrile. After centrifugation for 4 min at 13000 rpm, the supernatant was analysed by HPLC for DPX-4-0001 as well as formed ketorolac. The HPLC method described in Example 26 was applied.

[3] = Stability of a suspension of DPX-4-0001 in 67 mM phosphate buffer pH 7.4 (comparison to SF); format: physicochemical; settings: suspension in 67 mM phosphate buffer pH 7.4, 37° C.
Protocol: as §1
For comparison, the stability of a suspension of DPX-4-0001 in 67 mM phosphate buffer pH 7.4 was investigated by the same procedure at 37° C. […] Since the synovial disappearance half-lives of small-molecule drugs are in the range 2-5 h, the concentration of the active agent in the joint space is determined by the prodrug properties (i) solubility, (ii) degree of protein binding, and (iii) rate of cleavage of the prodrug bond, as well as (iv) the administered dose.

[4] = Precipitation on addition of acidic prodrug solution to phosphate buffer pH 7.4; format: physicochemical
Protocol: At appropriate time intervals, samples were withdrawn and centrifuged for 5 min at 13,000 rpm and the supernatant was analysed by HPLC for DPX-4-0001 and formed ketorolac. The HPLC method described in Example 26 was applied. […] A slight increase in the ketorolac concentration is the result of pH dependent hydrolysis of the prodrug bond (FIG. 3).
The pH in the suspension was measured to 7.0.

[5] = pKa value; format: physicochemical
[6] = Solubility of the prodrugs in PBS (67 mM phosphate buffer pH 7.4)

solubility ([1]; buffer solution, pH 2.02, aqueous buffer, thermodynamic from solid, pH 2.02, hydrochloride salt): 65 µg/mL
fold decrease in solubility from pH 2.02 to pH 7.4 ([1]; pH 2.02 vs pH 7.4): 1300 fold
concentration of dissolved prodrug in SF ([2]; 80% human synovial fluid pH 7.4, 37° C.): about 2.2×10^−5 M
conversion of the added amount of prodrug ([2]; 80% human synovial fluid, 37° C.): 28%
degradation of prodrug (to ketorolac) in phosphate buffer [3]: no significant degradation
final prodrug concentration in phosphate buffer [3]: about 8×10^−7 M
dissolved prodrug concentration after initial precipitation phase ([4]; 67 mM phosphate buffer pH 7.4, over 25 h): low and fairly constant concentration
precipitation after addition to buffer ([4]; 300 μl of solution in 0.01 M HCl added to 5 ml 67 mM phosphate buffer pH 7.4, no esterases): a precipitation process was observed
pKa [5]: ~5.2
solubility ([6]; 67 mM phosphate buffer (PBS), pH 7.4, aqueous buffer, thermodynamic from solid): ~0.05 µg/mL (≈ 0.124 µM)
solubility thermodynamic ([6]; 67 mM phosphate buffer pH 7.4 (PBS), 37 °C, pH 7.4, aqueous buffer, thermodynamic from solid): 0.1 ± 0.1 µM (≈ 0.0402 µg/mL)
Sprodrug ± SD ([6]; PBS (67 mM phosphate buffer pH 7.4), 37° C.): 0.05 ± 0.03 µg/mL
Compound: CN(C)c1ccc(CCOC(=O)C2CCn3c(C(=O)c4ccccc4)ccc32)cc1 (stereo not drawn) [DPX-4-0001, 4-(dimethylamino)phenethyl 5-benzoyl-2,3-dihydro-1H-pyrrolizine-1-carboxylate]
